Experimental data taken from patent US7732451B2, “Naphthalene-containing melanocortin receptor-specific small molecule” (Palatin Technologies, Inc., priority 2002, dated 2010).
Where two headings read alike, the source gives them in different places.

Tests used:
[1] = target: T1, MC4-R (HEK-293 cells expressing MC4-R) (Homo sapiens, UniProt P32245); assay: cAMP assay for agonist/antagonist status; assay type: cell-based; settings: antagonism = inhibition of α-MSH-induced cAMP
T1 construct: expressed in transfected cells; host or cells: HEK-293
Description: (§1) Functional evaluation of compounds at melanocortin receptors was performed by measuring the accumulation of intracellular cAMP in HEK-293 cells expressing MC3-R, MC4-R or MC5-R, and in B-16 mouse melanoma cells (containing MC1-R). Cells, suspended in Earle's Balanced Salt Solution containing 10 mM HEPES, pH 7.5, 5 mM MgCl2, 1 mM glutamine, 0.1% albumin and 0.6 mM 3-isobutyl-1-methyl-xanthine, a phosphodiesterase inhibitor, were plated in 96 well plates at a density of 0.5×10^5 cells per well. Cells were incubated with the test compounds in the presence or absence of α-MSH for 1 hour at 37° C. cAMP levels were measured by EIA (Amersham) in the cell lysates. Data analysis and EC50 values were determined using nonlinear regression analysis with Prism Graph-Pad software.
(§2) The agonist/antagonist status with respect to MC4-R of certain compounds of the invention was determined. Antagonistic activity was determined by measuring the inhibition of α-MSH-induced cAMP levels following exposure to the compounds as in Example 2.

[2] = target: T2, hMC4-R (Homo sapiens, UniProt P32245); assay: competitive inhibition binding assay, 125I-NDP-α-MSH, membranes; settings: for inhibition at 1 µM: 1 μM compound, average of triplicates, read-out: Inhibition at 1 μM MC4-R; for Ki: read-out: Ki (nM) MC4-R
T2 construct: expressed in transfected cells
Description: (§3) A competitive inhibition binding assay was conducted using membranes prepared from hMC3-R, hMC4-R, hMC5-R, and B-16 mouse melanoma cells (containing MC1-R) using 0.4 nM ^125I-NDP-α-MSH (New England Nuclear, Boston, Mass., USA) in 50 mM HEPES buffer containing 1 mM MgCl2, 2 mM CaCl2, and 5 mM KCl, at pH 7.2. The assay tube also contained a chosen concentration of the test compound of this invention, for determining its efficacy in inhibiting the binding of ^125I-NDP-α-MSH to its receptor.
(§4) Incubation was for 90 minutes at room temperature, after which the assay mixture was filtered and the membranes washed three times with ice cold buffer. The filter was dried and counted in a gamma counter for remaining radioactivity bound to the membranes. 100% specific binding was defined as the difference in radioactivity (cpm) bound to cell membranes in the absence and presence of 1 μM α-MSH. […] Each assay was conducted in triplicate and the actual mean values are described. The Ki (nM) of certain compounds of the invention were determined.

[3] = target: T3, MC1-R (B-16 mouse melanoma cells) (Mus musculus, UniProt Q01727); assay: as above; settings: for inhibition at 1 µM: 1 μM compound, average of triplicates, results less than 0% reported as 0%
T3 construct: B-16 mouse melanoma cells (containing MC1-R); endogenous in cells; host or cells: B-16 mouse melanoma cells
Description: as §3, §4

[4] = target: T4, hMC5-R (Homo sapiens, UniProt P33032); assay: as above; settings: for inhibition at 1 µM: 1 μM compound, average of triplicates, read-out: Inhibition at 1 μM MC5-R; for Ki: read-out: Ki (nM) MC5-R
T4 construct: expressed in transfected cells
Description: as §3, §4

[5] = target: T5, hMC3-R (Homo sapiens, UniProt P41968); assay: as above; settings: for inhibition at 1 µM: 1 μM compound, average of triplicates, read-out: Inhibition at 1 μM MC3-R
T5 construct: expressed in transfected cells
Description: as §3, §4

[6] = ICV feeding studies, change in food intake and body weight; assay type: in vivo, rat; settings: 1 nmol, male Sprague-Dawley rats; for change in weight: 24 hour
Description: (§5) Change in food intake and body weight was evaluated for selected compounds. Male Sprague-Dawley rats weighing ˜300 g at the beginning of the experiment were kept on a 12 hour on/off light cycle. Lights out was adjusted to 12:00 p.m. to allow for dosing just prior to the start of their dark period. Rats (8-12/group) were fed powdered chow and water ad libitum. For 1 week before treatment, 24-hour food intake and body weight change was recorded to assess a baseline for the group during vehicle treatment. The rats were dosed ICV with vehicle or selected compounds (1-3 nmol). The changes in body weight and food intake for the 24 hour period after dosing were determined. The changes in body weight and food intake for the 48 hour period, and in same cases for 72 hours as well, after dosing were also measured to determined reversal of changes in body weight and food intake effect back to baseline.

[7] = penile erection (PE) studies in male rats; assay type: in vivo, rat; settings: IV
Description: The ability of compounds to induce penile erection (PE) in male rats was evaluated with selected compounds. Male Sprague-Dawley rats weighing 200-250 g were kept on a 12 hour on/off light cycle with food and water ad libitum. All behavioral studies were performed between 10 a.m. and 5 p.m. Groups of 4-8 rats were treated with compounds at a variety of doses via intravenous (IV) or intracerebroventricular (ICV) routes. Immediately after treatment, rats were placed into individual polystyrene cages (27 cm long, 16 cm wide, and 25 cm high) for behavioral observation. The iv and icv treated rats were observed respectively for 30 minutes and 120 min and the number of yawns, grooming bouts and PEs were recorded in 10-minute bins.

[8] = target: T3, MC1-R (B-16 mouse melanoma cells); assay: cAMP assay for agonist/antagonist status; assay type: cell-based; settings: antagonism = inhibition of α-MSH-induced cAMP
Description: as §1, §2

[9] = target: T6, MC5-R (HEK-293 cells expressing MC5-R) (Homo sapiens, UniProt P33032); assay: cAMP assay for agonist/antagonist status; assay type: cell-based; settings: antagonism = inhibition of α-MSH-induced cAMP
T6 construct: expressed in transfected cells; host or cells: HEK-293
Description: as §1, §2

[10] = IV feeding studies, change in food intake and body weight; assay type: in vivo, rat; settings: 3 μg/Kg, male Sprague-Dawley rats
Description: as §5, with “The rats were dosed ICV with vehicle or selected compounds (1-3 nmol).” left out

[11] = 1 μg/Kg, 30 minutes observation, stated below baseline

T3 sequence (Q01727 whole entry): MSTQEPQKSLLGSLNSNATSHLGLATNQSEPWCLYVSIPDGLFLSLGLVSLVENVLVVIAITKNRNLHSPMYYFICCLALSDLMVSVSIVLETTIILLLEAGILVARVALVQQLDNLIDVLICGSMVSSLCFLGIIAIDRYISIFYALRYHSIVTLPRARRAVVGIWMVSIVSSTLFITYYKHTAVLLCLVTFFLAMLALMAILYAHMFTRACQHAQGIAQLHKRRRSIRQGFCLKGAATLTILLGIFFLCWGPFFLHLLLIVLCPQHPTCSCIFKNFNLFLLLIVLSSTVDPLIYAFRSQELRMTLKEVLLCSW
T5 sequence (P41968 whole entry): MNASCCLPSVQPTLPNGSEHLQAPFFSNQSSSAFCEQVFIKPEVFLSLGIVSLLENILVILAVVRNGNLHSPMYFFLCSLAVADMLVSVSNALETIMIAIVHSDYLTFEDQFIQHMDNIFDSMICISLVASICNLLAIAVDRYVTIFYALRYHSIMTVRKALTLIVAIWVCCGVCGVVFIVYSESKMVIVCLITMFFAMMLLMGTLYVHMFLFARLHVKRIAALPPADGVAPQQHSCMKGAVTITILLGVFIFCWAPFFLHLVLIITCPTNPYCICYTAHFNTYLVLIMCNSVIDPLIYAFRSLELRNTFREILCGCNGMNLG
T4 sequence (P33032 whole entry): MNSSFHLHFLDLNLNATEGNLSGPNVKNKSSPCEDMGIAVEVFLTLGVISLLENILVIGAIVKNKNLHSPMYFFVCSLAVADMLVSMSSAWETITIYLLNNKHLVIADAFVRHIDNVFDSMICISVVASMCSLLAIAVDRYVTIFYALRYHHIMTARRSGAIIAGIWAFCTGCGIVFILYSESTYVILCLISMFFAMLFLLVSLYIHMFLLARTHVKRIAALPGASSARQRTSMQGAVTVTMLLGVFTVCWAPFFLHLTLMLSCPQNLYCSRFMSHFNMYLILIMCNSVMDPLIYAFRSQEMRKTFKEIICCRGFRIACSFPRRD
T6 sequence (P33032 whole entry): as above
T1 sequence (P32245 whole entry): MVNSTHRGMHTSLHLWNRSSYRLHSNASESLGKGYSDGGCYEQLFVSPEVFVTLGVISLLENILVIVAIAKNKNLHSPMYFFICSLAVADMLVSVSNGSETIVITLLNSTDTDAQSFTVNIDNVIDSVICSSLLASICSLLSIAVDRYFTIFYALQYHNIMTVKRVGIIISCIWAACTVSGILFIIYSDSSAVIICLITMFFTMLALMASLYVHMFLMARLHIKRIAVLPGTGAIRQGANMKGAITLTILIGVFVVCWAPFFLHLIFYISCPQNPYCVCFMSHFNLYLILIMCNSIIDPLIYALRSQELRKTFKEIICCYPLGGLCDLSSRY
T2 sequence (P32245 whole entry): as above

Row | SMILES | agonist/antagonist status as to MC4-R [1] | inhibition at 1 µM [2] | Ki [2] | inhibition at 1 µM [3] | Ki ([3]; read-out: Ki (nM) MC1-R) | inhibition at 1 µM [4] | Ki [4] | inhibition at 1 µM [5] | Ki ([5]; read-out: Ki (nM) MC3-R) | 24 hour change in food intake [6] | change in weight [6] | mean PE [7, 11] | agonist/antagonist status as to MC1-R [8] | agonist/antagonist status as to MC5-R [9] | Ki ([3]; bound printed in μM in a Ki (nM) table, read-out: Ki MC1-R) | Ki ([5]; bound printed in μM in a Ki (nM) table, read-out: Ki MC3-R) | mean PE ([7]; 50 μg/Kg, stated not statistically relevant) | 24 hour change in food intake [10] | change in weight ([10]; 24 hour)
1 | Cc1cc(Cl)ccc1C[C@@H](N)C(=O)N1C[C@@H](C)N(CCc2ccc3ccccc3c2)C[C@@H]1CCCNC(=N)N [Example 14, N-{3-[1-[2(R)-Amino-3-(4-chloro-2-methyl-phenyl)-propionyl]-5(R)-methyl-4-(2-naphthalen-2-yl-ethyl)-piperazin-2(S)-yl]-propyl}-guanidine] | partial agonist | 100% | 1 nM | 23% | 1050 nM | 82% | 219 nM | 83% | 99 nM | -5.5 g | no change | – | – | – | – | – | – | – | –
2 | N=C(N)NCCC[C@H]1CN(CCOc2ccc3ccccc3c2)CCN1C(=O)[C@@H](N)Cc1ccc(Cl)cc1Cl [Example 18] | – | 91% | – | 25% | – | 40% | – | 33% | – | – | – | – | – | – | – | – | – | – | –
3 | NCCCC[C@H]1C(=O)N(CCc2ccc3ccccc3c2)CCN1C(=O)[C@@H](Cc1ccc(Cl)cc1Cl)NC(=O)/C=C/c1ccccc1 [Example 8] | antagonist | 96% | 13 nM | 30% | – | 60% | 410 nM | 46% | – | -10.1 g | -9.91 g | 0.13 | antagonist | agonist | > 1000 nM | > 1000 nM | – | – | –
4 | C[C@H]1CN(CCc2ccc3ccccc3c2)C[C@H](CCCNC(=N)N)N1C(=O)[C@H](N)Cc1ccc(Cl)cc1Cl [Example 17 (S)-CH3, N-{3-[1-[2(R)-Amino-3-(2,4-dichloro-phenyl)-propionyl]-6(S)-methyl-4-(2-naphthalen-2-yl-ethyl)-piperazin-2(S)-yl]-propyl}-guanidine] | agonist | 97% | 21 nM | 3% | 3180 nM | 64% | 602 nM | 47% | 551 nM | – | – | – | agonist | inactive | – | – | – | – | –
5 | C[C@@H]1CN(CCc2ccc3ccccc3c2)C[C@H](CCCNC(=N)N)N1C(=O)[C@H](N)Cc1ccc(Cl)cc1Cl [Example 17 (R)-CH3, N-{3-[1-[2(R)-Amino-3-(2,4-dichloro-phenyl)-propionyl]-6(R)-methyl-4-(2-naphthalen-2-yl-ethyl)-piperazin-2(S)-yl]-propyl}-guanidine] | – | 95% | – | 14% | – | 36% | – | 32% | – | – | – | – | – | – | – | – | – | – | –
6 | NCCCC[C@H]1C(=O)N(CCc2ccc3ccccc3c2)CCN1C(=O)[C@@H](Cc1ccc(Cl)cc1Cl)NC(=O)c1ccc(Oc2ccccc2)cc1 [Example 10] | antagonist | 99% | 1 nM | – | 915 nM | 51% | 282 nM | 51% | 150 nM | -0.6 g | -1.73 g | 0.14 | antagonist | agonist | – | – | 0.25 | – | –
7 | C[C@@H]1CN(C(=O)[C@H](N)Cc2ccc(Cl)cc2Cl)[C@@H](CCCNC(=N)N)CN1CCc1ccc2ccccc2c1 [Example 11, N-{3-[1-[2(R)-Amino-3-(2,4-dichloro-phenyl)-propionyl]-5(R)-methyl-4-(2 naphthalen-2-yl-ethyl)-piperazin-2(S)-yl]-propyl}-guanidine] | antagonist | 100% | 2 nM | 44% | 1130 nM | 78% | 362 nM | 82% | 95 nM | -2.6 g | -0.3 g | – | – | – | – | – | – | – | –
8 | NCCCC[C@H]1C(=O)N(CCc2ccc3ccccc3c2)CCN1C(=O)[C@@H](Cc1ccc(Cl)cc1Cl)NC(=O)[C@@H]1CC[C@H](c2ccccc2)N1 [Example 7] | – | 92% | – | – | – | 51% | – | 18% | – | -7.77 g | -5.88 g | – | – | – | – | – | – | – | –
9 | Cc1ccc(C[C@@H](N)C(=O)N2C[C@@H](C)N(CCc3ccc4ccccc4c3)C[C@@H]2CCCNC(=N)N)c(Cl)c1 [Example 13, N-{3-[1-[2(R)-Amino-3-(2-chloro-4-methyl-phenyl)-propionyl]-5(R)-methyl-4-(2-naphthalen-2-yl-ethyl)-piperazin-2(S)-yl]-propyl}-guanidine] | antagonist | 100% | 5 nM | 37% | 907 nM | 72% | 527 nM | 73% | 227 nM | -1.6 g | -3.9 g | – | – | – | – | – | – | – | –
10 | Cc1ccc(C[C@@H](N)C(=O)N2C[C@@H](C)N(CCc3ccc4ccccc4c3)C[C@@H]2CCCNC(=N)N)c(C)c1 [Example 16, N-{3-[1-[2(R)-Amino-3-(2,4-dimethyl-phenyl)-propionyl]-5(R)-methyl-4-(2-naphthalen-2-yl-ethyl)-piperazin-2(S)-yl]-propyl}-guanidine] | agonist | 98% | 11 nM | 22% | 1220 nM | 73% | 717 nM | 67% | 157 nM | -2.6 g | -5 g | – | – | – | – | – | – | -7.3 g | -6.3 g
